Assay results from patent US20240092758A1, “IMIDAZOLO INDAZOLE COMPOUNDS AS JAK INHIBITORS” (Theravance Biopharma R&D IP, LLC, priority 2021, published 2024).

Key:
[1] = biological target: JAK2 (Homo sapiens (Human), UniProt O60674); experiment: Biochemical JAK kinase assay (LanthaScreen), JAK2; settings: for Ki: read-out: JAK2 pKi (converted)
Method in brief: (§1)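 LanthaScreen format: phospho-STAT1 (pTyr701) detected with 2 nM Tb antibody after 10 mM EDTA quench. Kinase step used Km-level ATP and 200 nM STAT1 peptide, 1 h at ambient after 1 h pre-incubation. Inhibition fitted to IC50, reported as pKi.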

[2] = biological target: JAK1 (Homo sapiens (Human), UniProt P23458); experiment: Biochemical JAK kinase assay (LanthaScreen), JAK1; settings: for Ki: read-out: JAK1 pKi (converted)
Sequence of JAK1 (P23458 whole entry): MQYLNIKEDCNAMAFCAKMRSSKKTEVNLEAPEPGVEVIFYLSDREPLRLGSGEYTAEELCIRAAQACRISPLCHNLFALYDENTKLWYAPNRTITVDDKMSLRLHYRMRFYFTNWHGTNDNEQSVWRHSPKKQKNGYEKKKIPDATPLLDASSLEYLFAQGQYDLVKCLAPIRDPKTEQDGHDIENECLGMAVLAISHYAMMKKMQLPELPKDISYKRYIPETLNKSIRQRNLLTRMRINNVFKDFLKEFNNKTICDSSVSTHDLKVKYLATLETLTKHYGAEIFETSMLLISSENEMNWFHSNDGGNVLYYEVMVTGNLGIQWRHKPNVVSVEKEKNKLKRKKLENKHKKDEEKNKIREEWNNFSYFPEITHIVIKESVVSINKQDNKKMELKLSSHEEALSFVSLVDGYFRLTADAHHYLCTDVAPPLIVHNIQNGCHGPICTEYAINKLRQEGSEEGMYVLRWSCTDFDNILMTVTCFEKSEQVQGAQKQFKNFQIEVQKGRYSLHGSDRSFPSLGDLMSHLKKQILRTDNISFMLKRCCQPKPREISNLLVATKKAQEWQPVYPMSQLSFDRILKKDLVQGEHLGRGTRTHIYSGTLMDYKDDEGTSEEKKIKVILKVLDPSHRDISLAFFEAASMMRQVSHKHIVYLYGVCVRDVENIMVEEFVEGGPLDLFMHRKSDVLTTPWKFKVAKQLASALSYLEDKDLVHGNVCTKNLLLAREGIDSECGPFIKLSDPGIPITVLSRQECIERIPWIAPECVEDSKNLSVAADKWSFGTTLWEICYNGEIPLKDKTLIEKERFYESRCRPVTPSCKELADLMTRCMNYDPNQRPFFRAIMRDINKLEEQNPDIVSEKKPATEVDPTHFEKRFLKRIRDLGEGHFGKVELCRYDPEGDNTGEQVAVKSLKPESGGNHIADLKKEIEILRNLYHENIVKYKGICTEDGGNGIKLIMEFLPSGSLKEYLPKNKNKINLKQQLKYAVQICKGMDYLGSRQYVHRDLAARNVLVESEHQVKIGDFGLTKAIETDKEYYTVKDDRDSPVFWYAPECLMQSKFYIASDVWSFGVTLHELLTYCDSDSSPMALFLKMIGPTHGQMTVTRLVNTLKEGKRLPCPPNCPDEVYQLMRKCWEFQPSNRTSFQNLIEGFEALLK
Method in brief: as §1

[3] = tested on: IL-13 induced STAT6 phosphorylation in BEAS-2B human lung epithelial cells; experiment: Cellular JAKI potency assay (BEAS-2B); type: cell-based; settings: Homo sapiens, BEAS-2B, BEAS-2B cells, read-out: BEAS2B pIC50 (converted)
Method in brief: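 BEAS-2B cells were preincubated with compound (0.1% DMSO) in HBSS/HEPES/BSA for 1 h at 37 °C, then stimulated with IL-13 (80 ng/mL before addition) for 30 min. After lysis, pSTAT6 (Tyr641) was quantified by AlphaLISA SureFire; IC50 from a 4-parameter fit of percent inhibition, reported as pIC50.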

[4] = biological target: TYK2 (Homo sapiens (Human), UniProt P29597); experiment: Biochemical JAK kinase assay (LanthaScreen), Tyk2; settings: read-out: Tyk2 pKi (converted)
Sequence of TYK2 (P29597 whole entry): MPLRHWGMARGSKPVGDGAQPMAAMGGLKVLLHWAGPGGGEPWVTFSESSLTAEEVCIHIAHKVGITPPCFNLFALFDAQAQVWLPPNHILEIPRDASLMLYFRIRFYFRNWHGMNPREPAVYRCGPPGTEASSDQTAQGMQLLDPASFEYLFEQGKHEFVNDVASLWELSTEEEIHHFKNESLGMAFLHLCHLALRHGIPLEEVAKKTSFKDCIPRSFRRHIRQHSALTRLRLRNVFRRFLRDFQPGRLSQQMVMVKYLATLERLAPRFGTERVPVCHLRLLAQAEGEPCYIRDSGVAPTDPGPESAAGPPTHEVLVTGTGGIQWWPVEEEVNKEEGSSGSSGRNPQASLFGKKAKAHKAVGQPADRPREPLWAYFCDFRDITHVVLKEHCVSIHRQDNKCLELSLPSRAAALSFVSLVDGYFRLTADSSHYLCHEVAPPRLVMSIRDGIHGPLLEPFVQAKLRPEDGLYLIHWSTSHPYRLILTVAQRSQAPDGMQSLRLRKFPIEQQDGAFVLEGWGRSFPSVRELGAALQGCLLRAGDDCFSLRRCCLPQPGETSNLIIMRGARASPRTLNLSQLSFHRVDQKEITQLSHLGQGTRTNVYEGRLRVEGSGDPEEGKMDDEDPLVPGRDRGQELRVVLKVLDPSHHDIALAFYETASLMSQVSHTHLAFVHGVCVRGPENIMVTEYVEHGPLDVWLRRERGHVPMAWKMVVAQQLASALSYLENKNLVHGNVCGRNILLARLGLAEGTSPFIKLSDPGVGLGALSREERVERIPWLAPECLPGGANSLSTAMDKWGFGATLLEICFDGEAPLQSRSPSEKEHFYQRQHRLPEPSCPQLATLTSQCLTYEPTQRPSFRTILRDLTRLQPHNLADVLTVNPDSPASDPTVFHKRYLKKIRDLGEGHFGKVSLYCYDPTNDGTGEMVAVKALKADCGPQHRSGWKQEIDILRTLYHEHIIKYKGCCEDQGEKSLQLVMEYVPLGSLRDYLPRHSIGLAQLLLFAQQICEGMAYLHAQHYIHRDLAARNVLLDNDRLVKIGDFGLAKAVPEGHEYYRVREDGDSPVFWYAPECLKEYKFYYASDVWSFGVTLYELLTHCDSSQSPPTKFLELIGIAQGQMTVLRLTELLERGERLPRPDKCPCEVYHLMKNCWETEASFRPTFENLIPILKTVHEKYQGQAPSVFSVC
Procedure: (§2) A panel of four LanthaScreen JAK biochemical assays (JAK1, 2, 3 and Tyk2) were carried in a common kinase reaction buffer (50 mM HEPES, pH 7.5, 0.01% Brij-35, 10 mM MgCl2, and 1 mM EGTA). Recombinant GST-tagged JAK enzymes and a GFP-tagged STAT1 peptide substrate were obtained from Life Technologies.
(§3) Serially diluted compounds were pre-incubated with each of the four JAK enzymes and the substrate in white 384-well microplates (Corning) at ambient temperature for 1 h. ATP was subsequently added to initiate the kinase reactions in 10 μL total volume, with 1% DMSO. The final enzyme concentrations for JAK1, 2, 3 and Tyk2 are 4.2 nM, 0.1 nM, 1 nM, and 0.25 nM respectively; the corresponding Km ATP concentrations used are 25 μM, 3 μM, 1.6 μM, and 10 μM; while the substrate concentration is 200 nM for all four assays. Kinase reactions were allowed to proceed for 1 hour at ambient temperature before a 10 μL preparation of EDTA (10 mM final concentration) and Tb-anti-pSTAT1 (pTyr701) antibody (Life Technologies, 2 nM final concentration) in TR-FRET dilution buffer (Life Technologies) was added. The plates were allowed to incubate at ambient temperature for 1 h before being read on the EnVision reader (Perkin Elmer). Emission ratio signals (520 nm/495 nm) were recorded and utilized to calculate the percent inhibition values based on DMSO and background controls.
(§4) For dose-response analysis, percent inhibition data were plotted vs. compound concentrations, and IC50 values were determined from a 4-parameter robust fit model with the Prism software (GraphPad Software). Results were expressed as pIC50 (negative logarithm of IC50) and subsequently converted to pKi (negative logarithm of dissociation constant, Ki) using the Cheng-Prusoff equation.
(§5) Test compounds having a lower Ki value or higher pKi value in the four JAK assays show greater inhibition of JAK activity.

[5] = biological target: JAK3 (Homo sapiens (Human), UniProt P52333); experiment: Biochemical JAK kinase assay (LanthaScreen), JAK3; settings: read-out: JAK3 pKi (converted)
Sequence of JAK3 (P52333 whole entry): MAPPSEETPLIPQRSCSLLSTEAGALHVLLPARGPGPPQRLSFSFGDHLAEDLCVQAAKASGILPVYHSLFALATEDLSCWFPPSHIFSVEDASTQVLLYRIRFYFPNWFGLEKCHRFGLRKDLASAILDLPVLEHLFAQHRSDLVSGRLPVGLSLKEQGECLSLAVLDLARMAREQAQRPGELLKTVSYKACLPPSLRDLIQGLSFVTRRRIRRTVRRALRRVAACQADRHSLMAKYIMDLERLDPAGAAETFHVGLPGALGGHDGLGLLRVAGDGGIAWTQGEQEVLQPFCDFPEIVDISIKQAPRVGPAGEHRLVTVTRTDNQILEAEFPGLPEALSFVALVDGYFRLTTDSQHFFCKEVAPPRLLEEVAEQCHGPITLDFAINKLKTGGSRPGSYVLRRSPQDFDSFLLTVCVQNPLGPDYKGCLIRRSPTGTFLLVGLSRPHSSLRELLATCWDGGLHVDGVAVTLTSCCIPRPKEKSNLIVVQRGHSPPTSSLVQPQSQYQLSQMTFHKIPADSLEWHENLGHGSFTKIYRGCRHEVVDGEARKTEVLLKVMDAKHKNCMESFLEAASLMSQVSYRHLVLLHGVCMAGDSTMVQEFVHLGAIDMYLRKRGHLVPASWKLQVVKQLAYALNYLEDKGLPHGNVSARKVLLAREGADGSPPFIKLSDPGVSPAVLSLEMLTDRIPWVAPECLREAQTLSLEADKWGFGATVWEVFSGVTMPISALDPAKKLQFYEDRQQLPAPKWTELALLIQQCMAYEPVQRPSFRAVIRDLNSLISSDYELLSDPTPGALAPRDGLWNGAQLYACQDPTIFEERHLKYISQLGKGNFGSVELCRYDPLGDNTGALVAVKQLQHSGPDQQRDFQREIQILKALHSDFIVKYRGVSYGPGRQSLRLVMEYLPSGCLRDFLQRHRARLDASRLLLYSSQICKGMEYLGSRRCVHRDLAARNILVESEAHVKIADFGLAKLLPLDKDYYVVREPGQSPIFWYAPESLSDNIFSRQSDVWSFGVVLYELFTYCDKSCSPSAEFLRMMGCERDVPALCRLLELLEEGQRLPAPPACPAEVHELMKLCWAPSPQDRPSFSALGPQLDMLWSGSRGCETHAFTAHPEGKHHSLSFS
Procedure: as §2, §3, §4, §5

[6] = Pharmacokinetics in plasma and lung in mouse after oral aspiration administration; type: in vivo; settings: male CD1 mice; for Lung Tissue AUC(0-24) / AUC(0-t): 0.2 mg/mL, two 25 μL increments; for Lung Tissue:Plasma AUC ratio: lung AUC to plasma AUC; for AUC(0-t): mouse, inhaled or intranasal, 0.01 mg/mouse, plasma, read-out: Plasma AUC(0-24)
Procedure: Plasma and lung concentrations of test compounds were quantified and pharmacokinetic parameters were calculated in the following manner. Male CD1 mice from Charles River Laboratories were used in the pharmacokinetic studies. Test compounds were individually formulated in 20% propylene glycol in pH 4 citrate buffer at a concentration of 0.2 mg/mL. Test compounds were administered in two, 25 μL increments introduced into the trachea of each mouse by oral aspiration using a calibrated pipette once the animal was anesthetized using isoflurane. Blood samples were collected as terminal collections via cardiac puncture at 0.167, 1, 4, 8, and 24 hr post-dosing. Following […] with CO2, a direct cardiac puncture was performed while avoiding puncturing the lung and blood was immediately transferred into K2EDTA tubes and placed on wet ice. Blood samples were centrifuged (Eppendorf centrifuge, 5804R) for 4 minutes at approximately 12,000 rpm at 4° C. to collect plasma. Intact lungs were also excised from these mice using the same timepoints (0.167, 1, 4, 8, and 24 hr). Lungs were washed with sterile water to remove any blood residue and were patted dry, weighed, and homogenized in 0.1% formic acid in water at a dilution of 1:3 (lung:water, weight/volume). Plasma and lung concentrations of test compounds were determined by LC-MS/MS analysis against analytical standards constructed into a standard curve in the test matrix. The pharmacokinetic parameters of test compounds were determined by non-compartmental analysis. For concentrations below the limit of quantification, zero was used for mean calculations. Mean values were not reported if more than 50% of the samples were below the limit of quantification at a timepoint, or if more than 50% of a calculated pharmacokinetic parameter was not reportable. The area under the concentration-time curve extrapolated to infinity (AUC(0-inf)) was calculated as follows: AUC(0-inf)=AUC(0-t)+Clast/k, where AUC(0-t) is the area under the concentration-time curve from the time of dosing to the last measurable concentration calculated by the linear trapezoidal rule, Clast is the last measurable concentration, and k is the first order rate constant associated with the terminal elimination phase, estimated by linear regression of time versus log concentration. The lung-to-plasma AUC ratio was determined as the ratio of the lung AUC(0-inf) in μg*hr/g to the plasma AUC(0-inf) in μg*hr/mL.

Sequence of JAK2 (O60674 whole entry): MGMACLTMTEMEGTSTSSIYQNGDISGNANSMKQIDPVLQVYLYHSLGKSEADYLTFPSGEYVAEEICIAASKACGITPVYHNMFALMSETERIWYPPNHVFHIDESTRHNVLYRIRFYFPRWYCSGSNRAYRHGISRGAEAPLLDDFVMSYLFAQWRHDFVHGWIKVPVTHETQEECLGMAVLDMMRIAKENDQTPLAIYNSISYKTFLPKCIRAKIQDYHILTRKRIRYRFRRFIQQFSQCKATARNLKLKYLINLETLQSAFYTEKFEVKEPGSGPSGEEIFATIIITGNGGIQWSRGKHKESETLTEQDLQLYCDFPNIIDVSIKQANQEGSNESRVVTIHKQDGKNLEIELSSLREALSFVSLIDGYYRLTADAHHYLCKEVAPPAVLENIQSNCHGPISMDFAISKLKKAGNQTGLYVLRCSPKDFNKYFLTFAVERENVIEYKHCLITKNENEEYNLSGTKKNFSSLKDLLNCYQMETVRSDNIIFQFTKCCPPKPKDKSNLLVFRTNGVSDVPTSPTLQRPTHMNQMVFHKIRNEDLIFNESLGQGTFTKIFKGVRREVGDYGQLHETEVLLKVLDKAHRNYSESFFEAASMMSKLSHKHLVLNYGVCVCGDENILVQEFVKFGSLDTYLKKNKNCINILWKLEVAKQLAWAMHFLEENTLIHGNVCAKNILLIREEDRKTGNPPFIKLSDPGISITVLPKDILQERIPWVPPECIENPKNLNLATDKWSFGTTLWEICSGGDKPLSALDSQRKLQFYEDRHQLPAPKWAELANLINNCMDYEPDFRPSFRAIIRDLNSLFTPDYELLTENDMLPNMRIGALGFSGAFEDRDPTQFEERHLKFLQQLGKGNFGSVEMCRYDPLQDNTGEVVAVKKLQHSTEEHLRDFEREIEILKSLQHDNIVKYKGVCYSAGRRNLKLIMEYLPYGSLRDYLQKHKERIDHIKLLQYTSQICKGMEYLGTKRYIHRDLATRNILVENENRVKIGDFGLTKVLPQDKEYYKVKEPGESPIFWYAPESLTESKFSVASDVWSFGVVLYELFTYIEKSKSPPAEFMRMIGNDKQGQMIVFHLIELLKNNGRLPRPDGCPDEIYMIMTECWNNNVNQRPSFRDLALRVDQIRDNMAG

| Structure (SMILES) | Ki [1] [nM] | Ki [2] [nM] | IC50 [3] [nM] | Ki [4] [nM] | Ki [5] [nM] | JAK2 pKi [1] | JAK1 pKi [2] | Lung Tissue AUC(0-24) [6] | Lung Tissue:Plasma AUC ratio [6] | AUC(0-t) [6] [ng·h/mL] |
| --- | --- | --- | --- | --- | --- | --- | --- | --- | --- | --- |
| CCc1cc(O)ccc1-c1ccc2c(-c3nc(C4=C[C@@H](CO)NC4)c[nH]3)n[nH]c2c1F [Example 245] | 0.1 to 1 | 0.1 to 1 | 31.6 to 100 | 10 to 100 | 0.1 to 1 | – | – | – | – | – |
| CCc1cc(O)ccc1-c1ccc2c(-c3nc(C4=CCN(C(=O)[C@@H](N)C(C)(C)O)C4)c[nH]3)n[nH]c2c1F [Example 174] | 0.1 to 1 | 0.1 to 1 | 10 to 31.6 | 1 to 10 | 0.1 to 1 | – | – | – | – | – |
| CCc1cc(O)ccc1-c1ccc2c(-c3nc(C4=CCN(CCN(C)C)C4)c[nH]3)n[nH]c2c1F [Example 220] | – | 0.1 to 1 | 10 to 31.6 | 1 to 10 | 0.1 to 1 | A (A represents a pKi value ≥10 (Ki≤0.1 nM)) | – | – | – | – |
| CCc1cc(O)ccc1-c1ccc2c(-c3nc(C4=CCN(CCO)C4)c[nH]3)n[nH]c2c1F [Example 53] | – | – | 3.16 to 10 | 1 to 10 | 0.1 to 1 | A (A represents a pKi value ≥10 (Ki≤0.1 nM)) | A (A represents a pKi value ≥10 (Ki≤0.1 nM)) | – | – | – |
| CCc1cc(O)ccc1-c1ccc2c(-c3nc(C4=CCN(C[C@H](C)CO)CC4)c[nH]3)n[nH]c2c1F [Example 38] | 0.1 to 1 | – | 10 to 31.6 | – | – | – | A (A represents a pKi value ≥10 (Ki≤0.1 nM)) | C (C denotes a value between 9 and 50) | D (D denotes a ratio between 50 and 100) | < 500 |
| CCc1cc(O)ccc1-c1ccc2c(-c3nc(C4=CCN(C5CCNC5)CC4)c[nH]3)n[nH]c2c1F (stereo not shown) [Example 207] | – | 0.1 to 1 | 100 to 316 | 1 to 10 | 0.1 to 1 | A (A represents a pKi value ≥10 (Ki≤0.1 nM)) | – | – | – | – |
| CCc1cc(O)ccc1-c1ccc2c(-c3nc(C4=CCN(C5CCN(C)CC5)C4)c[nH]3)n[nH]c2c1 [Example 199] | – | – | 3.16 to 10 | 0.1 to 1 | 0.1 to 1 | A (A represents a pKi value ≥10 (Ki≤0.1 nM)) | A (A represents a pKi value ≥10 (Ki≤0.1 nM)) | – | – | – |
| CCc1cc(O)ccc1-c1ccc2c(-c3nc(C4=C(C)CCNC4)c[nH]3)n[nH]c2c1F [Example 236] | 0.1 to 1 | 0.1 to 1 | 10 to 31.6 | – | – | – | – | B (B denotes a value between 50 and 100) | C (C denotes a ratio between 100 and 200) | 500 to 1000 |
| CCc1cc(O)ccc1-c1ccc2c(-c3nc(C4=CCN(CCNS(C)(=O)=O)CC4)c[nH]3)n[nH]c2c1F [Example 106] | – | 0.1 to 1 | 10 to 31.6 | – | – | A (A represents a pKi value ≥10 (Ki≤0.1 nM)) | – | C (C denotes a value between 9 and 50) | C (C denotes a ratio between 100 and 200) | < 500 |
| CCc1cc(O)ccc1-c1ccc2c(-c3nc(C4=C(C)CNC4)c[nH]3)n[nH]c2c1F [Example 293] | 0.1 to 1 | 0.1 to 1 | 3.16 to 10 | 0.1 to 1 | 0.1 to 1 | – | – | – | – | – |
| CCc1cc(O)ccc1-c1ccc2c(-c3nc(C4=CCN(C5CCNC5=O)C4)c[nH]3)n[nH]c2c1 (stereo not shown) [Example 94] | – | 0.1 to 1 | 10 to 31.6 | – | – | A (A represents a pKi value ≥10 (Ki≤0.1 nM)) | – | C (C denotes a value between 9 and 50) | E (E denotes a ratio between 30 and 50) | < 500 |
| CCc1cc(O)ccc1-c1ccc2c(-c3nc(C4=C[C@H](COC)NC4)c[nH]3)n[nH]c2c1 [Example 241] | 0.1 to 1 | 0.1 to 1 | 3.16 to 10 | – | – | – | – | C (C denotes a value between 9 and 50) | D (D denotes a ratio between 50 and 100) | 500 to 1000 |
| CCc1cc(O)ccc1-c1ccc2c(-c3nc(C4=CCN(C(C)CO)CC4)c[nH]3)n[nH]c2c1F (stereo not shown) [Compound 13, 3-ethyl-4-(7-fluoro-3-(4-(1-(1-hydroxypropan-2-yl)-1,2,3,6-tetrahydropyridin-4-yl)-1H-imidazol-2-yl)-1H-indazol-6-yl)phenol] | – | 0.1 to 1 | 3.16 to 10 | – | – | – | – | B (B denotes a value between 50 and 100) | C (C denotes a ratio between 100 and 200) | 500 to 1000 |
| CCc1cc(O)ccc1-c1ccc2c(-c3nc(C4=CCN(CCC(C)(C)O)C4)c[nH]3)n[nH]c2c1 [Example 51] | – | – | 3.16 to 10 | – | – | A (A represents a pKi value ≥10 (Ki≤0.1 nM)) | A (A represents a pKi value ≥10 (Ki≤0.1 nM)) | C (C denotes a value between 9 and 50) | C (C denotes a ratio between 100 and 200) | < 500 |
| CCc1cc(O)ccc1-c1ccc2c(-c3nc(C4=C[C@H](CC(=O)N(C)C)NC4)c[nH]3)n[nH]c2c1F [Example 255] | – | – | 10 to 31.6 | – | – | A (A represents a pKi value ≥10 (Ki≤0.1 nM)) | A (A represents a pKi value ≥10 (Ki≤0.1 nM)) | A (For the Lung Tissue AUC(0-24), A denotes a value between 100 and 200) | D (D denotes a ratio between 50 and 100) | 1000 to 1500 |
